In US20240415918A1, “Polypeptide and its use as a CCK receptor agonist/antagonist” (Centre for Regenerative Medicine & Health, Hong Kong …, priority 2021, published 2024):

Target: T1, CCK-B receptors (CHO-CCK) (Homo sapiens, UniProt P32239)
T1 construct: expressed in transfected cells; host or cells: CHO (CHO-CCK model cells)
T1 sequence (P32239 1-447): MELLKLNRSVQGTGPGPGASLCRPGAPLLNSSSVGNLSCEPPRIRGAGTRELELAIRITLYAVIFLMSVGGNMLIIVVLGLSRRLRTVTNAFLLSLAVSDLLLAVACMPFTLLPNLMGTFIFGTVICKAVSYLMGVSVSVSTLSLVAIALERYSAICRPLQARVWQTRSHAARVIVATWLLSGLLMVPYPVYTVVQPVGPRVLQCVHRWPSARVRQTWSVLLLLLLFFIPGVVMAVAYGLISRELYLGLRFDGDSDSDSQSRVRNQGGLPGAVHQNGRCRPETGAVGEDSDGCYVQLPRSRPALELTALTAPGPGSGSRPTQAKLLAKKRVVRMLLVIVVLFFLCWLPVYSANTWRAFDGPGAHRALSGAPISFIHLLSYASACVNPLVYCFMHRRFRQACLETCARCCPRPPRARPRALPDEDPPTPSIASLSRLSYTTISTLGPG
Assay: Calcium flux (Fluo-8) agonist test on CHO-CCK model cells
Assay type: cell-based
Details: compound at 10 μM; percentage of signal of 20 nM CCK8 alone
Protocol: • To detect changes in intracellular calcium ion concentration after the compound acts on model cells containing CCK-B receptors (CHO-CCK).
• 1. The compound was formulated to a 10 mM mother liquor with DMSO, and then diluted into a series of 9 concentrations with a 3-fold gradient to form a 1000× stock solution.
2.1 Agonist • The compound stock solution was subjected to 200-fold dilution with HHBS buffer to form a 5× working solution.
• 1. Plate CHO-CCK cells in a 96-well plate with media containing 1% FBS, 30,000 cells/well/100 μL, and incubate overnight at 37° C. • 2. Prepare 1×Fluo-8 analysis buffer: mix 9 mL of HHBS, 1 mL of 10× Pluronic F127 Plus and 20 μL of Fluo-8 thoroughly for later use. • 3. Add Fluo-8 dye working solution to the cell plate, 100 μL/well. First incubate in a 37° C. incubator for 30 min, and then take it out and incubate at room temperature in the dark for 30 min. • 4. In the process of incubating cells, the compounds to be detected were prepared with HHBS. • 5.
The agonism/antagonism EC50 of the compound can be obtained by plotting the fitting curve with the agonism/antagonism percentage as Y-axis and the concentration of the compound as X-axis.

Row | Agonistic Activity (%) at 10 μM [%] | SMILES
1 | −0.20 | COC(=O)C[C@H](NC(=O)[C@H](CCSC)NC(=O)[C@H](N)Cc1c[nH]c2ccccc12)C(=O)N[C@@H](Cc1ccccc1[N+](=O)[O-])C(N)=O [HT-75, D-Trp-Met-Asp(Ome)-Phe(2-NO2)-NH2]
2 | 23.09 | COC(=O)C[C@H](NC(=O)[C@H](CCSC)NC(=O)[C@H](N)Cc1c[nH]c2ccccc12)C(=O)N[C@@H](Cc1ccccc1F)C(N)=O [HT-76, D-Trp-Met-Asp(Ome)-Phe(2-F)-NH2]
3 | 1.83 | COC(=O)C[C@H](NC(=O)[C@H](CCSC)NC(=O)[C@H](N)Cc1c[nH]c2ccccc12)C(=O)N[C@@H](Cc1cccc(Cl)c1)C(N)=O [HT-77, D-Trp-Met-Asp(Ome)-Phe(3-Cl)-NH2]
4 | 12.27 | COC(=O)C[C@H](NC(=O)[C@H](CCSC)NC(=O)[C@H](N)Cc1c[nH]c2ccccc12)C(=O)N[C@@H](Cc1ccc(C)cc1)C(N)=O [HT-81, D-Trp-Met-Asp(Ome)-Phe(4-Me)-NH2]
5 | 12.78 | COC(=O)C[C@H](NC(=O)[C@H](CCSC)NC(=O)[C@H](N)Cc1c[nH]c2ccccc12)C(=O)N[C@@H](Cc1ccc(N=[N+]=[N-])cc1)C(N)=O [HT-82, D-Trp-Met-Asp(Ome)-Phe(4-N3)-NH2]
6 | 1.91 | COC(=O)C[C@H](NC(=O)[C@H](CCSC)NC(=O)[C@H](N)Cc1c[nH]c2ccccc12)C(=O)N[C@@H](Cc1ccc(C#N)cc1)C(N)=O [HT-83, D-Trp-Met-Asp(Ome)-Phe(4-CN)-NH2]
7 | 3.24 | COC(=O)C[C@H](NC(=O)[C@H](CCSC)NC(=O)[C@H](N)Cc1c[nH]c2ccccc12)C(=O)N[C@@H](Cc1ccc([N+](=O)[O-])cc1)C(N)=O [HT-84, D-Trp-Met-Asp(Ome)-Phe(4-NO2)-NH2]
8 | 7.32 | COC(=O)C[C@H](NC(=O)[C@H](CCSC)NC(=O)[C@H](N)Cc1c[nH]c2ccccc12)C(=O)N[C@@H](Cc1ccc(Br)cc1)C(N)=O [HT-85, D-Trp-Met-Asp(Ome)-Phe(4-Br)-NH2]
9 | −0.94 | COC(=O)C[C@H](NC(=O)[C@H](CCSC)NC(=O)[C@H](N)Cc1c[nH]c2ccccc12)C(=O)N[C@@H](Cc1ccc(Cl)cc1)C(N)=O [HT-86, D-Trp-Met-Asp(Ome)-Phe(4-Cl)-NH2]
10 | −4.64 | COC(=O)C[C@H](NC(=O)[C@H](CCSC)NC(=O)[C@H](N)Cc1c[nH]c2ccccc12)C(=O)N[C@@H](Cc1ccc(I)cc1)C(N)=O [HT-88, D-Trp-Met-Asp(Ome)-Phe(4-I)-NH2]
11 | 3.12 | COC(=O)C[C@H](NC(=O)[C@H](CCSC)NC(=O)[C@H](N)Cc1c[nH]c2ccccc12)C(=O)N[C@@H](Cc1cc(F)c(F)c(F)c1)C(N)=O [HT-91, D-Trp-Met-Asp(Ome)-Phe(3,4,5-TriF)-NH2]
12 | 3.33 | COC(=O)C[C@H](NC(=O)[C@H](CC[S+](C)[O-])NC(=O)[C@H](N)Cc1c[nH]c2ccccc12)C(=O)N[C@@H](Cc1ccccc1[N+](=O)[O-])C(N)=O (stereo partly drawn) [HT-109, D-Trp-Met(O)-Asp(Ome)-Phe(2-NO2)-NH2]
13 | 1.36 | COC(=O)C[C@H](NC(=O)[C@H](CC[S+](C)[O-])NC(=O)[C@H](N)Cc1c[nH]c2ccccc12)C(=O)N[C@@H](Cc1ccccc1F)C(N)=O (stereo partly drawn) [HT-110, D-Trp-Met(O)-Asp(Ome)-Phe(2-F)-NH2]
14 | −7.28 | COC(=O)C[C@H](NC(=O)[C@H](CC[S+](C)[O-])NC(=O)[C@H](N)Cc1c[nH]c2ccccc12)C(=O)N[C@@H](Cc1cccc(Cl)c1)C(N)=O (stereo partly drawn) [HT-111, D-Trp-Met(O)-Asp(Ome)-Phe(3-Cl)-NH2]
15 | 2.89 | COC(=O)C[C@H](NC(=O)[C@H](CC[S+](C)[O-])NC(=O)[C@H](N)Cc1c[nH]c2ccccc12)C(=O)N[C@@H](Cc1cccc(F)c1)C(N)=O (stereo partly drawn) [HT-112, D-Trp-Met(O)-Asp(Ome)-Phe(3-F)-NH2]
16 | 6.21 | COC(=O)C[C@H](NC(=O)[C@H](CC[S+](C)[O-])NC(=O)[C@H](N)Cc1c[nH]c2ccccc12)C(=O)N[C@@H](Cc1cccc(I)c1)C(N)=O (stereo partly drawn) [HT-113, D-Trp-Met(O)-Asp(Ome)-Phe(3-I)-NH2]
17 | −8.48 | COC(=O)C[C@H](NC(=O)[C@H](CC[S+](C)[O-])NC(=O)[C@H](N)Cc1c[nH]c2ccccc12)C(=O)N[C@@H](Cc1cccc(Br)c1)C(N)=O (stereo partly drawn) [HT-114, D-Trp-Met(O)-Asp(Ome)-Phe(3-Br)-NH2]
18 | 9.82 | COC(=O)C[C@H](NC(=O)[C@H](CC[S+](C)[O-])NC(=O)[C@H](N)Cc1c[nH]c2ccccc12)C(=O)N[C@@H](Cc1ccc(C)cc1)C(N)=O (stereo partly drawn) [HT-115, D-Trp-Met(O)-Asp(Ome)-Phe(4-Me)-NH2]
19 | 10.90 | COC(=O)C[C@H](NC(=O)[C@H](CC[S+](C)[O-])NC(=O)[C@H](N)Cc1c[nH]c2ccccc12)C(=O)N[C@@H](Cc1ccc(N=[N+]=[N-])cc1)C(N)=O (stereo partly drawn) [HT-116, D-Trp-Met(O)-Asp(Ome)-Phe(4-N3)-NH2]
20 | 9.81 | COC(=O)C[C@H](NC(=O)[C@H](CC[S+](C)[O-])NC(=O)[C@H](N)Cc1c[nH]c2ccccc12)C(=O)N[C@@H](Cc1ccc(C#N)cc1)C(N)=O (stereo partly drawn) [HT-117, D-Trp-Met(O)-Asp(Ome)-Phe(4-CN)-NH2]
21 | 0.13 | COC(=O)C[C@H](NC(=O)[C@H](CC[S+](C)[O-])NC(=O)[C@H](N)Cc1c[nH]c2ccccc12)C(=O)N[C@@H](Cc1ccc([N+](=O)[O-])cc1)C(N)=O (stereo partly drawn) [HT-118, D-Trp-Met(O)-Asp(Ome)-Phe(4-NO2)-NH2]
22 | 6.93 | COC(=O)C[C@H](NC(=O)[C@H](CC[S+](C)[O-])NC(=O)[C@H](N)Cc1c[nH]c2ccccc12)C(=O)N[C@@H](Cc1ccc(Br)cc1)C(N)=O (stereo partly drawn) [HT-119, D-Trp-Met(O)-Asp(Ome)-Phe(4-Br)-NH2]
23 | −1.00 | COC(=O)C[C@H](NC(=O)[C@H](CC[S+](C)[O-])NC(=O)[C@H](N)Cc1c[nH]c2ccccc12)C(=O)N[C@@H](Cc1ccc(Cl)cc1)C(N)=O (stereo partly drawn) [HT-120, D-Trp-Met(O)-Asp(Ome)-Phe(4-Cl)-NH2]
24 | 10.99 | COC(=O)C[C@H](NC(=O)[C@H](CC[S+](C)[O-])NC(=O)[C@H](N)Cc1c[nH]c2ccccc12)C(=O)N[C@@H](Cc1ccc(F)cc1)C(N)=O (stereo partly drawn) [HT-121, D-Trp-Met(O)-Asp(Ome)-Phe(4-F)-NH2]
25 | 5.16 | COC(=O)C[C@H](NC(=O)[C@H](CC[S+](C)[O-])NC(=O)[C@H](N)Cc1c[nH]c2ccccc12)C(=O)N[C@@H](Cc1ccc(I)cc1)C(N)=O (stereo partly drawn) [HT-122, D-Trp-Met(O)-Asp(Ome)-Phe(4-I)-NH2]
26 | 0.84 | COC(=O)C[C@H](NC(=O)[C@H](CC[S+](C)[O-])NC(=O)[C@H](N)Cc1c[nH]c2ccccc12)C(=O)N[C@@H](Cc1cc(Cl)cc(Cl)c1)C(N)=O (stereo partly drawn) [HT-123, D-Trp-Met(O)-Asp(Ome)-Phe(3,5-DiCl)-NH2]
27 | 0.71 | COC(=O)C[C@H](NC(=O)[C@H](CC[S+](C)[O-])NC(=O)[C@H](N)Cc1c[nH]c2ccccc12)C(=O)N[C@@H](Cc1cc(F)cc(F)c1)C(N)=O (stereo partly drawn) [HT-124, D-Trp-Met(O)t-Asp(Ome)-Phe(3,5-DiF)-NH2]

Row | SMILES | Agonistic Activity (%) at 10 μM [%]
28 | CSCC[C@H](NC(=O)[C@H](N)Cc1c[nH]c2ccccc12)C(=O)N[C@@H](CC(=O)OCCNc1cccc2c(O)cccc12)C(=O)N[C@@H](Cc1ccc(Cl)cc1)C(N)=O [HT-103, D-Trp-Met-Asp(EDANS)-Phe(4-Cl)-NH2] | 1.03
